In BindingDB's records for doi:10.1021/acs.jmedchem.1c00818 (University of Picardy Jules Verne, 2021) one finds IC50 data, which are given here for seven compounds.

The structures appear in SMILES notation. pIC50: −log10 of the molar value.

Experiment [1] can be described thus: Inhibition of DC-SIGN extracellular domain (unknown origin) binding to HIV gp120 by surface plasmon resonance analysis. On the technique in general: Surface plasmon resonance follows binding to a sensor surface in real time, without labels.
A short description of experiment [2]: Inhibition of DC-SIGN (unknown origin) expressed in human Jurkat cells assessed as inhibition of EBOV-pseudotyped virus infection measured after 48 hrs by luciferase assay.
The nature of experiment [3]: Inhibition of full-length DC-SIGN (unknown origin) expressed in human monocyte derived dendritic cells assessed as inhibition of binding to recombinant HCMV gB using flow cytometry. (In flow cytometry, cells or beads pass a laser one at a time.)

The term pIC50 denotes −log10 of the IC50, conventionally taken in molar units. In the case of `CC(C)(C)c1cc2c(OCCCn3cc(CN(O)C(=O)CCCCCn4cc(CO[C@H]5O[C@H](CO)[C@@H](O)[C@H](O)[C@@H]5O)nn4)nn3)c(c1)Cc1cc(C(C)(C)C)cc(c1OCCCn1cc(CN(O)C(=O)CCCCCn3cc(CO[C@H]4O[C@H](CO)[C@@H](O)[C@H](O)[C@@H]4O)nn3)nn1)Cc1cc(C(C)(C)C)cc(c1OCCCn1cc(CN(O)C(=O)CCCCCn3cc(CO[C@H]4O[C@H](CO)[C@@H](O)[C@H](O)[C@@H]4O)nn3)nn1)Cc1cc(C(C)(C)C)cc(c1OCCCn1cc(CN(O)C(=O)CCCCCn3cc(CO[C@H]4O[C@H](CO)[C@@H](O)[C@H](O)[C@@H]4O)nn3)nn1)C2`, the values for the pIC50 in experiment [1], in experiment [2] and in experiment [3] were 4.43, 6.20 and 6.81, respectively.
The like results for `C[C@@H]1O[C@@H](OCc2cn(CCCCCC(=O)N(O)Cc3cn(CCCOc4c5cc(C(C)(C)C)cc4Cc4cc(C(C)(C)C)cc(c4OCCCn4cc(CN(O)C(=O)CCCCCn6cc(CO[C@@H]7O[C@@H](C)[C@@H](O)[C@@H](O)[C@@H]7O)nn6)nn4)Cc4cc(C(C)(C)C)cc(c4OCCCn4cc(CN(O)C(=O)CCCCCn6cc(CO[C@@H]7O[C@@H](C)[C@@H](O)[C@@H](O)[C@@H]7O)nn6)nn4)Cc4cc(C(C)(C)C)cc(c4OCCCn4cc(CN(O)C(=O)CCCCCn6cc(CO[C@@H]7O[C@@H](C)[C@@H](O)[C@@H](O)[C@@H]7O)nn6)nn4)C5)nn3)nn2)[C@@H](O)[C@H](O)[C@@H]1O` were, in that order, 4.57, 6.54 and 6.73.
The corresponding values for `COC(=O)CNC(=O)CN(Cc1cn(CCCOc2c3cc(C(C)(C)C)cc2Cc2cc(C(C)(C)C)cc(c2OCCCn2cc(CN(CC(=O)NCC(=O)OC)C(=O)CCCCCn4cc(CO[C@@H]5O[C@@H](C)[C@@H](O)[C@@H](O)[C@@H]5O)nn4)nn2)Cc2cc(C(C)(C)C)cc(c2OCCCn2cc(CN(CC(=O)NCC(=O)OC)C(=O)CCCCCn4cc(CO[C@@H]5O[C@@H](C)[C@@H](O)[C@@H](O)[C@@H]5O)nn4)nn2)Cc2cc(C(C)(C)C)cc(c2OCCCn2cc(CN(CC(=O)NCC(=O)OC)C(=O)CCCCCn4cc(CO[C@@H]5O[C@@H](C)[C@@H](O)[C@@H](O)[C@@H]5O)nn4)nn2)C3)nn1)C(=O)CCCCCn1cc(CO[C@@H]2O[C@@H](C)[C@@H](O)[C@@H](O)[C@@H]2O)nn1` are 4.58, 6.66 and 6.11.
Regarding `COC(=O)CNC(=O)CN(Cc1cn(CCCOc2c3cc(C(C)(C)C)cc2Sc2cc(C(C)(C)C)cc(c2OCCCn2cc(CN(CC(=O)NCC(=O)OC)C(=O)CCCCCn4cc(CO[C@H]5O[C@H](CO)[C@@H](O)[C@H](O)[C@@H]5O)nn4)nn2)Sc2cc(C(C)(C)C)cc(c2OCCCn2cc(CN(CC(=O)NCC(=O)OC)C(=O)CCCCCn4cc(CO[C@H]5O[C@H](CO)[C@@H](O)[C@H](O)[C@@H]5O)nn4)nn2)Sc2cc(C(C)(C)C)cc(c2OCCCn2cc(CN(CC(=O)NCC(=O)OC)C(=O)CCCCCn4cc(CO[C@H]5O[C@H](CO)[C@@H](O)[C@H](O)[C@@H]5O)nn4)nn2)S3)nn1)C(=O)CCCCCn1cc(CO[C@H]2O[C@H](CO)[C@@H](O)[C@H](O)[C@@H]2O)nn1`, in experiment [1], the pIC50 was 4.84.
Take `COC(=O)CNC(=O)CN(Cc1cn(CCCOc2c3cc(C(C)(C)C)cc2Cc2cc(C(C)(C)C)cc(c2OCCCn2cc(CN(CC(=O)NCC(=O)OC)C(=O)CCCCCn4cc(CO[C@H]5O[C@H](CO)[C@@H](O)[C@H](O)[C@@H]5O)nn4)nn2)Cc2cc(C(C)(C)C)cc(c2OCCCn2cc(CN(CC(=O)NCC(=O)OC)C(=O)CCCCCn4cc(CO[C@H]5O[C@H](CO)[C@@H](O)[C@H](O)[C@@H]5O)nn4)nn2)Cc2cc(C(C)(C)C)cc(c2OCCCn2cc(CN(CC(=O)NCC(=O)OC)C(=O)CCCCCn4cc(CO[C@H]5O[C@H](CO)[C@@H](O)[C@H](O)[C@@H]5O)nn4)nn2)C3)nn1)C(=O)CCCCCn1cc(CO[C@H]2O[C@H](CO)[C@@H](O)[C@H](O)[C@@H]2O)nn1`: the negative logarithm of the IC50 (pIC50) in experiment [1] is 4.34.
On to `COC(=O)CNC(=O)CN(Cc1cn(CCCOc2c3cc(C(C)(C)C)cc2Sc2cc(C(C)(C)C)cc(c2OCCCn2cc(CN(CC(=O)NCC(=O)OC)C(=O)CCCCCn4cc(CO[C@@H]5O[C@@H](C)[C@@H](O)[C@@H](O)[C@@H]5O)nn4)nn2)Sc2cc(C(C)(C)C)cc(c2OCCCn2cc(CN(CC(=O)NCC(=O)OC)C(=O)CCCCCn4cc(CO[C@@H]5O[C@@H](C)[C@@H](O)[C@@H](O)[C@@H]5O)nn4)nn2)Sc2cc(C(C)(C)C)cc(c2OCCCn2cc(CN(CC(=O)NCC(=O)OC)C(=O)CCCCCn4cc(CO[C@@H]5O[C@@H](C)[C@@H](O)[C@@H](O)[C@@H]5O)nn4)nn2)S3)nn1)C(=O)CCCCCn1cc(CO[C@@H]2O[C@@H](C)[C@@H](O)[C@@H](O)[C@@H]2O)nn1`, for which the pIC50 in experiment [1] was 4.77; in experiment [2], 6.22; in experiment [3], 6.00.
As for `CO[C@H]1O[C@H](CO)[C@@H](O)[C@H](O)[C@@H]1O` [methyl alpha-D-mannoside], the pIC50 in experiment [2] was 2.90.
